Reference: publication PMC6364417, “Kinase inhibitor library screening identifies synergistic drug combinations effective in sensitive and resistant melanoma cells” (Journal of Experimental & Clinical Cancer Research : CR, 2019)

Assays:
Test in all cases: Kinase inhibitor library screening, PrestoBlue cell viability, 1 or 10 μM, 72 h
501Mel cells (parental) = conditions: for viability at 1 µM / viability at 10 µM: Homo sapiens; for viability at 1 µM: read-out: cell viability, 501Mel Parental, 1μΜ; for viability at 10 µM: read-out: cell viability, 501Mel Parental, 10μΜ; for cell viability (kinase inhibitor library screening): 501Mel Parental
Method in brief: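 Single-point screen at two doses over three days. Parental and BRAF-inhibitor-resistant sublines (XP: Vemurafenib; GP: Dabrafenib) were assessed by PrestoBlue viability, reported relative to untreated cells.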

[1] = system: 501Mel-XP cells (Vemurafenib-resistant); conditions: for viability at 1 µM / viability at 10 µM: Homo sapiens; for viability at 1 µM: read-out: cell viability, 501Mel XP, 1μΜ; for viability at 10 µM: read-out: cell viability, 501Mel XP, 10μΜ; for cell viability (kinase inhibitor library screening): 501Mel XP
[2] = system: A375-XP cells (Vemurafenib-resistant); conditions: for viability at 1 µM / viability at 10 µM: Homo sapiens, A-375, 72 h; for viability at 1 µM: read-out: cell viability, A375 XP, 1μΜ; for viability at 10 µM: read-out: cell viability, A375 XP, 10μΜ; for cell viability (kinase inhibitor library screening): A375 XP
[3] = system: IGR37-XP cells (Vemurafenib-resistant); conditions: for viability at 1 µM / viability at 10 µM: Homo sapiens, IGR-37, 72 h; for viability at 1 µM: read-out: cell viability, IGR37 XP, 1μΜ; for viability at 10 µM: read-out: cell viability, IGR37 XP, 10μΜ; for cell viability (kinase inhibitor library screening): IGR37 XP
[4] = system: A375-GP cells (Dabrafenib-resistant); conditions: for viability at 1 µM / viability at 10 µM: Homo sapiens, A-375, 72 h; for viability at 1 µM: read-out: cell viability, A375 GP, 1μΜ; for viability at 10 µM: read-out: cell viability, A375 GP, 10μΜ; for cell viability (kinase inhibitor library screening): A375 GP
IGR37 cells (parental) = conditions: for viability at 1 µM / viability at 10 µM: Homo sapiens, IGR-37, 72 h; for viability at 1 µM: read-out: cell viability, IGR37 Parental, 1μΜ; for viability at 10 µM: read-out: cell viability, IGR37 Parental, 10μΜ; for cell viability (kinase inhibitor library screening): IGR37 Parental
[5] = system: IGR37-GP cells (Dabrafenib-resistant); conditions: for viability at 1 µM / viability at 10 µM: Homo sapiens, IGR-37, 72 h; for viability at 1 µM: read-out: cell viability, IGR37 GP, 1μΜ; for viability at 10 µM: read-out: cell viability, IGR37 GP, 10μΜ; for cell viability (kinase inhibitor library screening): IGR37 GP
A375 cells (parental) = conditions: for viability at 1 µM / viability at 10 µM: Homo sapiens, A-375, 72 h; for viability at 1 µM: read-out: cell viability, A375 Parental, 1μΜ; for viability at 10 µM: read-out: cell viability, A375 Parental, 10μΜ; for cell viability (kinase inhibitor library screening): A375 Parental
[6] = system: 501Mel-GP cells (Dabrafenib-resistant); conditions: for viability at 1 µM / viability at 10 µM: Homo sapiens; for viability at 1 µM: read-out: cell viability, 501Mel GP, 1μΜ; for viability at 10 µM: read-out: cell viability, 501Mel GP, 10μΜ; for cell viability (kinase inhibitor library screening): 501Mel GP

## O=C1Nc2ccccc2/C1=C1/Nc2ccccc2C1=O [Indirubin]
501Mel cells (parental); 72 h
  viability at 1 µM: 104%
  viability at 10 µM: 101%
[1]; 72 h
  viability at 1 µM: 88.9%
  viability at 10 µM: 70.4%
[2]
  viability at 1 µM: 102%
  viability at 10 µM: 103%
[3]
  viability at 1 µM: 95.7%
  viability at 10 µM: 75.6%
[4]
  viability at 1 µM: 95.3%
  viability at 10 µM: 96.4%
IGR37 cells (parental)
  viability at 1 µM: 100%
  viability at 10 µM: 105%
[5]
  viability at 1 µM: 94.7%
  viability at 10 µM: 91.3%
A375 cells (parental)
  viability at 1 µM: 101%
  viability at 10 µM: 95.1%
[6]; 72 h
  viability at 1 µM: 102%
  viability at 10 µM: 91.5%

## Nc1nc(Nc2ccc(S(N)(=O)=O)cc2)nn1C(=O)c1c(F)cccc1F [JNJ-7706621]
501Mel cells (parental); 10μΜ, 72 h
  cell viability (kinase inhibitor library screening): 0.466%
[1]; 1μΜ, 72 h
  cell viability (kinase inhibitor library screening): 97.8%
[1]; 10μΜ, 72 h
  cell viability (kinase inhibitor library screening): -0.273%
[2]; 1μΜ, 72 h
  cell viability (kinase inhibitor library screening): 93.1%
[2]; 10μΜ, 72 h
  cell viability (kinase inhibitor library screening): 5.9%
[3]; 1μΜ, 72 h
  cell viability (kinase inhibitor library screening): 106.1%
[3]; 10μΜ, 72 h
  cell viability (kinase inhibitor library screening): 2.5%
[4]; 1μΜ, 72 h
  cell viability (kinase inhibitor library screening): 89.4%
[4]; 10μΜ, 72 h
  cell viability (kinase inhibitor library screening): 3.0%
IGR37 cells (parental); 1μΜ, 72 h
  cell viability (kinase inhibitor library screening): 95.5%
IGR37 cells (parental); 10μΜ, 72 h
  cell viability (kinase inhibitor library screening): 9.4%
[5]; 1μΜ, 72 h
  cell viability (kinase inhibitor library screening): 99.1%
[5]; 10μΜ, 72 h
  cell viability (kinase inhibitor library screening): 18.2%
A375 cells (parental); 10μΜ, 72 h
  cell viability (kinase inhibitor library screening): 5.3%
A375 cells (parental); 1μΜ, 72 h
  cell viability (kinase inhibitor library screening): 89.1%
[6]; 1μΜ, 72 h
  cell viability (kinase inhibitor library screening): 110.0%
[6]; 10μΜ, 72 h
  cell viability (kinase inhibitor library screening): 0.28%

## Cn1cc(-c2ccc3nnc(C(F)(F)c4ccc5ncccc5c4)n3n2)cn1 [JNJ-38877605]
501Mel cells (parental); 1μΜ, 72 h
  cell viability (kinase inhibitor library screening): 97.8%
501Mel cells (parental); 10μΜ, 72 h
  cell viability (kinase inhibitor library screening): 86.4%
[1]; 1μΜ, 72 h
  cell viability (kinase inhibitor library screening): 70.9%
[1]; 10μΜ, 72 h
  cell viability (kinase inhibitor library screening): 57.1%
[2]; 1μΜ, 72 h
  cell viability (kinase inhibitor library screening): 105.2%
[2]; 10μΜ, 72 h
  cell viability (kinase inhibitor library screening): 100.0%
[3]; 1μΜ, 72 h
  cell viability (kinase inhibitor library screening): 96.1%
[3]; 10μΜ, 72 h
  cell viability (kinase inhibitor library screening): 62.2%
[4]; 10μΜ, 72 h
  cell viability (kinase inhibitor library screening): 97.0%
IGR37 cells (parental); 1μΜ, 72 h
  cell viability (kinase inhibitor library screening): 106.0%
IGR37 cells (parental); 10μΜ, 72 h
  cell viability (kinase inhibitor library screening): 87.1%
[5]; 1μΜ, 72 h
  cell viability (kinase inhibitor library screening): 102.6%
[5]; 10μΜ, 72 h
  cell viability (kinase inhibitor library screening): 87.5%
A375 cells (parental); 10μΜ, 72 h
  cell viability (kinase inhibitor library screening): 97.6%
A375 cells (parental); 1μΜ, 72 h
  cell viability (kinase inhibitor library screening): 99.7%
[6]; 1μΜ, 72 h
  cell viability (kinase inhibitor library screening): 86.8%
[6]; 10μΜ, 72 h
  cell viability (kinase inhibitor library screening): 64.7%

## CCCNC(=O)Nc1ccc(Oc2ncnc3cc(OC)c(OC)cc23)cc1Cl [KRN 633]
501Mel cells (parental); 1μΜ, in %
  cell viability (kinase inhibitor library screening): 94.4
501Mel cells (parental); 10μΜ, in %
  cell viability (kinase inhibitor library screening): 91.7
[1]; 10μΜ, in %
  cell viability (kinase inhibitor library screening): 80.1
[2]; 10μΜ, in %
  cell viability (kinase inhibitor library screening): 103.6
[3]; 1μΜ, in %
  cell viability (kinase inhibitor library screening): 98.3
[3]; 10μΜ, in %
  cell viability (kinase inhibitor library screening): 68.5
[4]; 1μΜ, in %
  cell viability (kinase inhibitor library screening): 99.0
[4]; 10μΜ, in %
  cell viability (kinase inhibitor library screening): 89.8
IGR37 cells (parental); 1μΜ, in %
  cell viability (kinase inhibitor library screening): 99.7
IGR37 cells (parental); 10μΜ, in %
  cell viability (kinase inhibitor library screening): 109.9
[5]; 1μΜ, in %
  cell viability (kinase inhibitor library screening): 92.2
[5]; 10μΜ, in %
  cell viability (kinase inhibitor library screening): 93.4
A375 cells (parental); 1μΜ, in %
  cell viability (kinase inhibitor library screening): 103.4
A375 cells (parental); 10μΜ, in %
  cell viability (kinase inhibitor library screening): 92.6
[6]; 1μΜ, in %
  cell viability (kinase inhibitor library screening): 106.2
[6]; 10μΜ, in %
  cell viability (kinase inhibitor library screening): 89.7

## O=c1cc(-c2cccc3c2Sc2ccccc2S3)oc(N2CCOCC2)c1 [KU-55933]
501Mel cells (parental); 10μΜ, 72 h
  cell viability (kinase inhibitor library screening): 90.2%
[1]; 1μΜ, 72 h
  cell viability (kinase inhibitor library screening): 87.7%
[1]; 10μΜ, 72 h
  cell viability (kinase inhibitor library screening): 65.9%
[2]; 1μΜ, 72 h
  cell viability (kinase inhibitor library screening): 104.1%
[2]; 10μΜ, 72 h
  cell viability (kinase inhibitor library screening): 92.4%
[3]; 1μΜ, 72 h
  cell viability (kinase inhibitor library screening): 105.2%
[3]; 10μΜ, 72 h
  cell viability (kinase inhibitor library screening): 34.9%
[4]; 1μΜ, 72 h
  cell viability (kinase inhibitor library screening): 92.9%
[4]; 10μΜ, 72 h
  cell viability (kinase inhibitor library screening): 89.1%
IGR37 cells (parental); 1μΜ, 72 h
  cell viability (kinase inhibitor library screening): 113.8%
IGR37 cells (parental); 10μΜ, 72 h
  cell viability (kinase inhibitor library screening): 80.4%
[5]; 1μΜ, 72 h
  cell viability (kinase inhibitor library screening): 98.2%
[5]; 10μΜ, 72 h
  cell viability (kinase inhibitor library screening): 67.8%
A375 cells (parental); 10μΜ, 72 h
  cell viability (kinase inhibitor library screening): 90.0%
A375 cells (parental); 1μΜ, 72 h
  cell viability (kinase inhibitor library screening): 105.8%
[6]; 1μΜ, 72 h
  cell viability (kinase inhibitor library screening): 98.9%
[6]; 10μΜ, 72 h
  cell viability (kinase inhibitor library screening): 76.6%

## C[C@@H]1CN(CC(=O)Nc2ccc3c(c2)Cc2cccc(-c4cc(=O)cc(N5CCOCC5)o4)c2S3)C[C@H](C)O1 [KU-60019]
501Mel cells (parental); 1μΜ, 72 h
  cell viability (kinase inhibitor library screening): 90.0%
501Mel cells (parental); 10μΜ, 72 h
  cell viability (kinase inhibitor library screening): 71.5%
[1]; 1μΜ, 72 h
  cell viability (kinase inhibitor library screening): 91.4%
[1]; 10μΜ, 72 h
  cell viability (kinase inhibitor library screening): 36.5%
[2]; 10μΜ, 72 h
  cell viability (kinase inhibitor library screening): 74.4%
[3]; 10μΜ, 72 h
  cell viability (kinase inhibitor library screening): 34.1%
[4]; 1μΜ, 72 h
  cell viability (kinase inhibitor library screening): 100.5%
[4]; 10μΜ, 72 h
  cell viability (kinase inhibitor library screening): 68.6%
IGR37 cells (parental); 10μΜ, 72 h
  cell viability (kinase inhibitor library screening): 97.6%
[5]; 1μΜ, 72 h
  cell viability (kinase inhibitor library screening): 92.9%
A375 cells (parental); 10μΜ, 72 h
  cell viability (kinase inhibitor library screening): 78.4%
[6]; 1μΜ, 72 h
  cell viability (kinase inhibitor library screening): 103.1%
[6]; 10μΜ, 72 h
  cell viability (kinase inhibitor library screening): 54.1%

## O=C(c1ccc(/C=C/c2n[nH]c3ccccc23)cc1)N1CCNCC1 [KW 2449]
501Mel cells (parental); 72 h
  viability at 1 µM: 97.3%
  viability at 10 µM: 57.7%
[1]; 72 h
  viability at 1 µM: 96.9%
  viability at 10 µM: 58%
[2]
  viability at 1 µM: 94.8%
  viability at 10 µM: 40.9%
[3]
  viability at 1 µM: 104%
  viability at 10 µM: 18%
[4]
  viability at 1 µM: 93.7%
  viability at 10 µM: 28%
IGR37 cells (parental)
  viability at 1 µM: 99.6%
  viability at 10 µM: 71.9%
[5]
  viability at 1 µM: 96.4%
  viability at 10 µM: 45.2%
A375 cells (parental)
  viability at 1 µM: 87.5%
  viability at 10 µM: 30.6%
[6]; 72 h
  viability at 1 µM: 103%
  viability at 10 µM: 66.3%

## COc1cc2nccc(Oc3ccc(NC(=O)Nc4ccc(F)cc4F)c(F)c3)c2cc1OC [Ki8751]
501Mel cells (parental); 1μΜ, in %
  cell viability (kinase inhibitor library screening): 96.7
501Mel cells (parental); 10μΜ, in %
  cell viability (kinase inhibitor library screening): 85.3
[1]; 1μΜ, in %
  cell viability (kinase inhibitor library screening): 89.9
[1]; 10μΜ, in %
  cell viability (kinase inhibitor library screening): 74.9
[2]; 10μΜ, in %
  cell viability (kinase inhibitor library screening): 97.9
[3]; 1μΜ, in %
  cell viability (kinase inhibitor library screening): 88.9
[3]; 10μΜ, in %
  cell viability (kinase inhibitor library screening): 70.9
[4]; 1μΜ, in %
  cell viability (kinase inhibitor library screening): 94.2
[4]; 10μΜ, in %
  cell viability (kinase inhibitor library screening): 77.5
IGR37 cells (parental); 1μΜ, in %
  cell viability (kinase inhibitor library screening): 93.0
IGR37 cells (parental); 10μΜ, in %
  cell viability (kinase inhibitor library screening): 84.9
[5]; 1μΜ, in %
  cell viability (kinase inhibitor library screening): 88.2
[5]; 10μΜ, in %
  cell viability (kinase inhibitor library screening): 88.8
A375 cells (parental); 1μΜ, in %
  cell viability (kinase inhibitor library screening): 96.1
A375 cells (parental); 10μΜ, in %
  cell viability (kinase inhibitor library screening): 75.1
[6]; 1μΜ, in %
  cell viability (kinase inhibitor library screening): 97.3
[6]; 10μΜ, in %
  cell viability (kinase inhibitor library screening): 80.7
